Laboratory results from PMC13233288, “Spider venom peptides Ht1a and Gg1a are toxic to honeybee parasite Varroa destructor by topical application” (npj Drug Discovery, 2026).
No end group written: not given here.

Experiments:
Assay type in all cases: cell-based, human
hNaV1.2/NaV1.7 = assay: FLIPR Ca2+ fluorescence, veratridine-stimulated SH-SY5Y cells; details: 10 µM, added 5 min prior to veratridine (50 µM)
Experimental: (§1) To further test the selectivity of sHt1a and sGg1a, we examined their activity on hNaV1.2/NaV1.7 and hCaV2.2 channels, as well as the hα3β2/4 nicotinic acetylcholine receptor (nAchR), that are endogenously expressed in the neuroblastoma cell line SH-SY5Y using a high-throughput fluorescent assay as previously described. In brief, SH-SY5Y cells were seeded at a density of 40,000 cells/well in black-walled imaging plates (Corning, Lowell, MA, USA), then incubated for 48 h at 37 °C in a 5% humidified CO2 incubator. On the day of the assay, cells were loaded with Calcium 4 No-wash dye (Molecular Devices) by reconstituting the lyophilised dye in physiological salt solution (PSS in mM: 140 NaCl, 11.5 glucose, 5.9 KCl, 1.4 MgCl2, 1.2 NaH2PO4, 5 NaHCO3, 1.8 CaCl2, 10 HEPES, pH 7.4). Cells were incubated with the dye for 30 min at 37 °C in a 5% humidified CO2 incubator. Gg1a and Ht1a (10 µM) were added 5 min prior to stimulation with either veratridine (50 µM, hNaV1.2/NaV1.7 activator), nicotine (30 µM, hα3β2/4 nAchR activator) or KCl/CaCl2 (90 mM/5 mM, CaV1.3/2.2 activator) Fluorescent responses were recorded using a FLIPR^Penta fluorescent plate reader (Molecular Devices) with excitation at 470–495 nm and emission at 515–575 nm.

hCaV2.2 = assay: FLIPR Ca2+ fluorescence, KCl/CaCl2-stimulated SH-SY5Y cells; details: 10 µM, added 5 min prior to KCl/CaCl2 (90 mM/5 mM)
Experimental: as §1

hNaV1.5 = assay: Automated whole-cell patch clamp, hNaV1.5 + β1 in HEK 293 cells; details: 3 μM, 50 ms pulse to −20 mV from −90 mV, ECS with 0.1% BSA, at least 2 min
Experimental: (§2) To examine for off-target activity on mammalian ion channels and receptors, we first tested the activity of sHt1a and Gg1a against human NaV channels. Whole-cell patch-clamp recordings were performed on Human Embryonic Kidney (HEK) 293 cells stably expressing human NaV1.4 or NaV1.5 in conjunction with the β1 subunit (SB Drug Discovery, Glasgow, United Kingdom) using a QPatch II automated electrophysiology platform (Sophion Bioscience, Ballerup, Denmark). Whole-cell currents were filtered at 8 kHz and acquired at 25 kHz. The linear leak was corrected by P/4 subtraction (leak potential −90 mV, leak sweep amplitude 10%). Series resistance across recorded cells ranged between 5 and 10 MΩ. The extracellular solution (ECS) consisted of (in mM): 145 NaCl, 4 KCl, 2 CaCl2, 1 MgCl2, 10 HEPES, and 10 glucose, adjusted to pH 7.4 with NaOH and to 305 mOsm/L with sucrose. The intracellular solution (ICS) consisted of (in mM): 140 CsF, 1 EGTA, 5 CsOH, 10 HEPES, and 10 NaCl, adjusted to pH 7.3 with CsOH and 320 mOsm/L with sucrose. Currents were elicited from a holding potential of −90 mV delivered with a 50 ms depolarising pulse to −20 mV every 20 s (0.05 Hz). Peptides were diluted in ECS containing 0.1% BSA and applied to cells for at least 2 min at the concentrations stated. Peak currents were normalised to the buffer control.

[1] = tested on: hα3β2/4 nicotinic acetylcholine receptor (nAchR); assay: FLIPR Ca2+ fluorescence, nicotine-stimulated SH-SY5Y cells; details: 10 µM, added 5 min prior to nicotine (30 µM)
Experimental: as §1

hNaV1.4 = assay: Automated whole-cell patch clamp, hNaV1.4 + β1 in HEK 293 cells; details: 3 μM, 50 ms pulse to −20 mV from −90 mV, ECS with 0.1% BSA, at least 2 min
Experimental: as §2

| Substance | effect on neuronal NaV channels (hNaV1.2/NaV1.7) | effect on neuronal NaV channels (hNaV1.2/NaV1.7; listed as sGg1a) | effect on CaV2.2 (hCaV2.2) | effect on CaV2.2 (hCaV2.2; listed as sGg1a) | effect on hNaV1.5 currents (hNaV1.5) | effect on hNaV1.5 currents (hNaV1.5; listed as sGg1a) | inhibition of nicotine-mediated Ca2+ influx (α3 nAChRs) [1] | effect on hNaV1.4 currents (hNaV1.4) | effect on hNaV1.4 currents (hNaV1.4; listed as sGg1a) | effect on neuronal NaV channels (hNaV1.2/NaV1.7; listed as sHt1a) | effect on CaV2.2 (hCaV2.2; listed as sHt1a) | effect on hNaV1.5 currents (hNaV1.5; listed as sHt1a) | inhibition of nicotine-mediated Ca2+ influx (α3 nAChRs) ([1]; listed as sHt1a) | effect on hNaV1.4 currents (hNaV1.4; listed as sHt1a) |
| --- | --- | --- | --- | --- | --- | --- | --- | --- | --- | --- | --- | --- | --- | --- |
| U1-macrothelitoxin-Gg1a | inactive | did not significantly affect | inactive | did not significantly affect | inactive | did not significantly affect | inactive | inactive | did not significantly affect |  |  |  |  |  |
| KYCAPRKAVCNTPADCCDKSSRCAYPNYGLGYYLDSEFFGKRKICSWRL (also: bicyclic or more (positions not given here)) [Ht1a, μ-gradutoxin-Ht1a] | inactive |  | inactive |  | inactive |  | partially blocked | inactive |  | did not significantly affect | did not significantly affect | did not significantly affect | partial inhibition | did not significantly affect |
